The text below walks through data of US9545389B2, “Baclofen and acamprosate based therapy of macular degeneration disorders” (PHARNEXT, priority 2012, dated 2017).

What all share (format): cell-based
Assay [1] concerns Rat cortical neurons. The experiment in a line: Cytoplasmic cytochrome C (CytoC) assay in human amyloid-β1-42 intoxicated cortical neurons. Further details: key: − and −− intensity of lowering effect of compositions; − and −− intensity of lowering effect of compositions. Particulars: Aβ1-42 1.25 μM 4 hours; lowering effect. As for the experimental part: (§1) Rat cortical neurons were cultured as described by Singer et al., 1999 [28]. Briefly pregnant female rats of 15 days gestation were killed by cervical dislocation (Rats Wistar) and the fetuses were removed from the uterus. The cortex were removed and placed in ice-cold medium of Leibovitz (L15) containing 2% of Penicillin 10.000 U/ml and Streptomycin 10 mg/ml and 1% of bovine serum albumin (BSA). Cortex were dissociated by trypsin (0.05%) for 20 min at 37° C. The reaction was stopped by the addition of Dulbecco's modified Eagle's medium (DMEM) containing DNase1 grade II (0.1 mg/mL) and 10% of fetal calf serum (FCS). Cells were then mechanically dissociated by 3 serial passages through a 10 ml pipette. Cells were then centrifuged at 515×g for 10 min at 10° C. The supernatant was discarded and the pellet of cells will be re-suspended in a defined culture medium consisting of Neurobasal supplemented with B27 (2%), L-glutamine (0.2 mM), 2% of PS solution and 10 ng/mL of BDNF. Viable cells were counted in a Neubauer cytometer using the trypan blue exclusion test. […]
(§2) Data are expressed in percentage of control conditions (no intoxication, no amyloid=100%) in order to express the amyloid injury. All values are expressed as mean+/−SEM (s.e. mean) of the 3 cultures (n=6 wells per condition). […]

Assay [2] has as its system Rat dopaminergic neurons (mesencephalic culture). The assay can be described thus: TH neurons survival test after 48 h 6-OHDA injury on dopaminergic neurons. Particulars: for In vitro 6OHDA resistance: TH neurons survival after 48 h 6-OHDA (20 μM) injury. The protocol:
Rat dopaminergic neurons were cultured as described by Schinelli et al. (1988). Pregnant female rats of 15 days gestation were killed by cervical dislocation (Rats Wistar; Janvier) and the foetuses removed from the uterus. The embryonic midbrains were removed and placed in ice-cold medium of Leibovitz (L15; PanBiotech) containing 2% of Penicillin-Streptomycin (PS; PanBiotech) and 1% of bovine serum albumin (BSA; PanBiotech). Only the ventral portions of the mesencephalic flexure were used for the cell preparations as this is the region of the developing brain rich in dopaminergic neurons. The midbrains were dissociated by trypsinisation for 20 min at 37° C. (Trypsin EDTA 1×; PanBiotech). The reaction is stopped by the addition of Dulbecco's modified Eagle's medium (DMEM; PanBiotech) containing DNAase I grade II (0.1 mg/ml; PanBiotech) and 10% of foetal calf serum (FCS; Invitrogen). Cells were then mechanically dissociated by 3 passages through a 10 ml pipette and centrifuged at 180×g for 10 min at +4° C. on a layer of BSA (3.5%) in L15 medium. The supernatant was discarded and the cells of pellet were re-suspended in a defined culture medium consisting of Neurobasal (Invitrogen) supplemented with B27 (2%; Invitrogen), L-glutamine (2 mM; PanBiotech) and 2% of PS solution and 10 ng/ml of Brain-derived neurotrophic factor (BDNF, PanBiotech) and 1 ng/ml of Glial-Derived Neurotrophic Factor (GDNF, PanBiotech). Viable cells were counted in a Neubauer cytometer using the trypan blue exclusion test. The cells were seeded at a density of 40 000 cells/well in 96 well-plates (pre-coated with poly-L-lysine (Greiner)) and are cultured at 37° C. in a humidified air (95%)/CO2 (5%) atmosphere. Half of the medium was changed every 2 days with fresh medium. Five to six percents of the neuronal cell population were dopaminergic neurons. […]
Data are expressed in percentage of control conditions (no intoxication, no 6OHDA=100%) in order to express the 6OHDA injury. All values are expressed as mean+/−SEM (s.e. mean) of the 3 cultures (n=6 wells per condition per culture). […]

Assay [3] relates to Rat cortical neurons. The assay can be described thus: MetO assay (oxidative stress) in human amyloid-β1-42 intoxicated cortical neurons. On the set-up: key: − and −− intensity of lowering effect of compositions; − and −− intensity of lowering effect of compositions. Particulars: Aβ1-42 1.25 μM 4 hours; lowering effect. The protocol:
as §1, §2

Take `CC(=O)NCCCS(=O)(=O)O` [Acamprosate]: in the assay with Rat cortical neurons [1], the “In vitro CytC level” value is “−”. Moreover, in assay [2], the “In vitro 6OHDA resistance” value was “improvement”. The “In vitro MetO level” value with Rat cortical neurons [3] is “−”.

Take `NCC(CC(=O)O)c1ccc(Cl)cc1` (stereo not shown) [Baclofen]: the “In vitro CytC level” value in the assay on Rat cortical neurons [1] is on record as “−”. The “In vitro 6OHDA resistance” value in assay [2] is recorded as “improvement”. Besides, the “In vitro MetO level” value in the assay with Rat cortical neurons [3] is “−”.

B1: BDNF: Brain-derived neurotrophic factor, used as a positive control (protein, UniProt P23560 19-247, looked up)
Neurotrophic factor BDNF …: APMKEANIRGQGGLAYPGVRTHGTLESVNGPKAGSRGLTSLADTFEHVIEELLDEDQKVRPNEENNKDADLYTSRVMLSSQVPLEPPLLFLLEEYKNYLDAANMSMRVRRHSDPARRGELSVCDSISEWVTAADKKTAVDMSGGTVTVLEKVPVSKGQLKQYFYETKCNPMGYTKEGCRGIDKRHWNSQCRTTQSYVRALTMDSKKRIGWRFIRIDTSCVCTLTIKRGR
Regarding B1, the “protection of dopaminergic neurons from 6-OHDA injury” value in assay [2] (1 hour pre-treatment at 1.85 nM, positive control) was “significantly protected”.
